Results from patent US20160183564A1 (priority 2013, published 2016).
Several values for one entry are separate records, joined by “and”; a condition that tells them apart may be missing. Equal values may be shown once.

Legend:
Methanogenesis = format: cell-based
VFA production = format: cell-based

Row | Structure (SMILES) | Effect on Methanogenesis (% compared to control) (Methanogenesis) | VFA profile (as percentage of total VFA) But. (VFA production) | VFA profile (as percentage of total VFA) Prop. (VFA production) | VFA profile (as percentage of total VFA) ace. (VFA production)
1 | O=[N+]([O-])c1ccc(NCCO)cc1 [2-(4-Nitro-phenylamino)-ethanol] | −12% | – | – | –
2 | O=[N+]([O-])OCCCO [3-nitrooxy propanol, 3-Nitrooxypropanol] | −9% and −8% | 6 percentage of total VFA | 34 percentage of total VFA | 59 percentage of total VFA
3 | Nc1ccc([N+](=O)[O-])cc1 [(4-nitro-phenyl)-amine] | −15% | 8 percentage of total VFA | 33 percentage of total VFA | 59 percentage of total VFA
4 | CCCNc1ccc([N+](=O)[O-])cc1 [(4-Nitro-phenyl)-propyl-amine] | −11% | – | – | –
